Measurements taken from ChEMBL document CHEMBL1201862, “PubChem BioAssay data set” (2004).
Activity calls are given as the source filed them.

Key:
[1] = A549 cell cytotoxicity, dose response, cytotoxicity control, plate reader, cherry-pick, antagonist series (AID 743412); assay type: functional, cell-based
[2] = LGR2 antagonists, dose response, cell-based, HEK293, CRE-luciferase reporter, cherry pick, set 2 (AID 743343); assay type: functional;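 also: transfected cells were stimulated with diluted bursicon conditioned medium after compound addition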
[3] = MC4R antagonists, dose response, counter-screen for LGR2 antagonist project, cell-based, plate reader, cherry pick (AID 743444); assay type: functional;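 also: transfected HEK 293 cells stimulated with alpha-MSH peptide; potency of inhibitors of the alpha-MSH evoked signal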
[4] = HEK293 cell cytotoxicity, dose response, cytotoxicity control, plate reader, cherry-picked samples (AID 743446); assay type: functional, cell-based
[5] = target: T1, Small ubiquitin-related modifier 1 (Homo sapiens, UniProt P63165); assay: inhibitors of SUMO1 peptide binding, dose response, biochemical, fluorescence polarization, uHTS hits (AID 624382); assay type: functional; conditions: read-out: IC50_Mean
[6] = target: T1, Small ubiquitin-related modifier 1; assay: inhibitors of SUMO1 partner interactions, dose response, biochemical, FRET (AID 624383); assay type: functional; conditions: read-out: IC50_Mean
[7] = inhibitors of intracellular T. cruzi replication, confirmation, NIH3T3 host cells, beta-gal luminescence (AID 2044); assay type: functional, cell-based;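 also: intracellular parasites grown in NIH/3T3 mouse fibroblasts as host cells; luminescent beta-galactosidase reporter signal from transgenic T. cruzi replicating inside host cells; inhibitors lower the luminescence signal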
[8] = cytotoxicity toward NIH3T3 fibroblasts, dose response, counter-screen, cell-based, ATP luminescence, mouse fibroblasts (AID 2010); assay type: functional;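 also: cells exposed to compound for about 90 hours before reading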
[9] = Vero E6 cell cytotoxicity, dose response, cytotoxicity control for non-replicating M. tuberculosis project, secondary assay (AID 492998); assay type: functional, VeroE6; conditions: Vero C1008
[10] = cells; assay type: functional
[11] = tested on: BJ; assay: cytotoxicity toward BJ-TERT fibroblasts, dose response, cell-based, RAS-independent, luminescence (AID 1933); assay type: functional; conditions: Homo sapiens
[12] = A Cell Based Secondary Assay To Explore Cytotoxicity of Compounds that Sensitize Mycobacterium Tuberculosis to Beta-Lactam Antibiotics.; assay type: functional
[13] = tested on: BJ; assay: cells; assay type: functional, cell-based; conditions: Homo sapiens
[14] = tested on: BJ; assay: cytotoxicity toward BJ-TERT-LT-ST fibroblasts, dose response, cell-based, RAS-independent, luminescence (AID 1935); assay type: functional; conditions: Homo sapiens;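 also: BJ fibroblasts immortalized with TERT plus LT and ST oncogenes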
[15] = cytotoxicity toward DRD oncogenic fibroblasts, dose response, cell-based, non-viral oncogenic, luminescence (AID 1934); assay type: functional; conditions: Homo sapiens
[16] = tested on: P388/ADR; assay: cells; assay type: functional; conditions: Mus musculus
[17] = tested on: SN12K1; assay: cells; assay type: functional; conditions: Homo sapiens
[18] = tested on: P388; assay: cells; assay type: functional; conditions: Mus musculus
[19] = target: G-protein coupled receptor 55 (Homo sapiens, UniProt Q9Y2T6); assay: GPR55 antagonists blocking LPI-driven arrestin recruitment, primary screen, imaging, U2OS, beta-arrestin-GFP, LPI agonist (AID 2013); assay type: functional;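 also: antagonist potency measured as reduced agonist-driven arrestin aggregation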
[20] = target: Glucose-6-phosphate 1-dehydrogenase (Homo sapiens, UniProt P11413); assay: human G6PD enzyme inhibitors, dose response, selectivity assay for P. falciparum G6PD inhibitor project, biochemical, fluorescence (AID 504792); assay type: functional
[21] = target: T2, Rac GTPase-activating protein 1 (Homo sapiens, UniProt Q9H0H5); assay: MgcRacGAP GTPase-activating activity inhibitors, confirmation, biochemical, ADP Hunter fluorescence, primary and confirmatory (AID 624330); assay type: functional
T2 sequence (Q9H0H5 whole entry): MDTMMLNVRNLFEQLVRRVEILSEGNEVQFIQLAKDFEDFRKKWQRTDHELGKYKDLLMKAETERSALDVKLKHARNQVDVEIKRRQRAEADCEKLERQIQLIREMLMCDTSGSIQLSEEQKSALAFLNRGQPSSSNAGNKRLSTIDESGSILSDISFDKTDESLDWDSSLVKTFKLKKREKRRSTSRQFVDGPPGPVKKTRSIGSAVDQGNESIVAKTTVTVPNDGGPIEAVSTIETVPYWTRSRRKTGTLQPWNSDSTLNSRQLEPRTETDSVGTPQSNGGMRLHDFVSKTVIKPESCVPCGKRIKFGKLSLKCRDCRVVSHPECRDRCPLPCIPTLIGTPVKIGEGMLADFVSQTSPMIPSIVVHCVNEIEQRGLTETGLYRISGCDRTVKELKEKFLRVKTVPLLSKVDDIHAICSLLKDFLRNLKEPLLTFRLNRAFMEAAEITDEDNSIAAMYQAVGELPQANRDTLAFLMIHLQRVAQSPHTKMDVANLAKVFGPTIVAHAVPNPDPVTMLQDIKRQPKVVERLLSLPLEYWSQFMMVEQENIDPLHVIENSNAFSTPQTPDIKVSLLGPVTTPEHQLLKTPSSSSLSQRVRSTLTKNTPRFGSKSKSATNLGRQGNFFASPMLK

[22] = target: T3, Leucine aminopeptidase (Plasmodium falciparum 3D7, UniProt Q8IL11); assay: P. falciparum M17LAP inhibitors, primary screen, biochemical, fluorogenic H-Leu-NHMec substrate, 1536-well (AID 1619); assay type: functional
T3 sequence (Q8IL11 whole entry): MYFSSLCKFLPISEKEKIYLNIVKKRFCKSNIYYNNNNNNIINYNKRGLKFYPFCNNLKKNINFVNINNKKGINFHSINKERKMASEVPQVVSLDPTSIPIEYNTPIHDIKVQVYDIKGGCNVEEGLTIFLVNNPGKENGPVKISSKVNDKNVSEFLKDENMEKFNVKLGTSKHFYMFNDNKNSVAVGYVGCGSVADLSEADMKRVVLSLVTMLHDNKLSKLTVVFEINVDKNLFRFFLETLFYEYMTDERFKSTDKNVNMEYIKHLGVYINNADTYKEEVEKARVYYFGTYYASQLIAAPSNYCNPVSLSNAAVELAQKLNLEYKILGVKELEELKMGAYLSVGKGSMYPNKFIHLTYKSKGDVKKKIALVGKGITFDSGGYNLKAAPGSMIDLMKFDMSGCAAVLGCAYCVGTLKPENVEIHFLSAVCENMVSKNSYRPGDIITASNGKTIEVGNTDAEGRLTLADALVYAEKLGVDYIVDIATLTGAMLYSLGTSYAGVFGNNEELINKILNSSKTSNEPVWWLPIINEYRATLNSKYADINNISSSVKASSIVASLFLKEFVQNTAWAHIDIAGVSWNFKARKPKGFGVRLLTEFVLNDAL

[23] = target: T4, Carboxy-terminal domain RNA polymerase II polypeptide A small phosphatase 1 (Homo sapiens, UniProt Q9GZU7); assay: inhibitors of CTDSP1, concentration-response testing, biochemical assay, absorbance-based, actives from ultra-high-throughput screening (AID 540297); assay type: functional
T4 sequence (Q9GZU7 whole entry): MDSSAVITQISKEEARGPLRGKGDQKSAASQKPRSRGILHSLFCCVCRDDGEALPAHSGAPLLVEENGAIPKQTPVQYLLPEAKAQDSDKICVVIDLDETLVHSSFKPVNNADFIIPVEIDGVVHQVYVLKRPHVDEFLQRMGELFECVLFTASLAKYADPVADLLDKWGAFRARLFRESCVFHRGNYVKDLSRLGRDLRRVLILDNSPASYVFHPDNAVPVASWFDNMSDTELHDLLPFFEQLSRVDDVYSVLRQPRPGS

[24] = tested on: HEK293; assay: inhibitors of LMP1-driven NF-kB reporter, dose response, cell-based, HEK293, luciferase, cherry-pick (AID 588343); assay type: functional; conditions: Homo sapiens
[25] = target: Heat shock protein HSP 90-alpha (Homo sapiens, UniProt P07900); assay type: functional, organism-based
[26] = tested on: Vero; assay: cells; assay type: functional; conditions: Chlorocebus sabaeus
[27] = Shn3 3'UTR reporter inhibitors, dose response, cell-based, Clone20 osteoblasts, firefly luciferase, cherry-picked (AID 624132); assay type: functional;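 also: firefly luciferase luminescence from reporter carrying the Shn3 3'UTR in osteoblasts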
[28] = HepG2 cell cytotoxicity, dose response, cytotoxicity control for Shn3 inhibitor project, CellTiter-Glo, cherry-picked (AID 624134); assay type: functional, cell-based
[29] = control 3'UTR Renilla luciferase suppression, dose response, counter-screen for Shn3 inhibitor project, cell-based, Clone20-Shn3RL, cherry-picked (AID 624133); assay type: functional

T1 sequence (P63165 whole entry): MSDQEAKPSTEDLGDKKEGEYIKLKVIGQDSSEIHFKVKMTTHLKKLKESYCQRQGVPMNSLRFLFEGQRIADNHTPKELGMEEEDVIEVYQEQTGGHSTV
Sequence of Glucose-6-phosphate 1-dehydrogenase (P11413 whole entry): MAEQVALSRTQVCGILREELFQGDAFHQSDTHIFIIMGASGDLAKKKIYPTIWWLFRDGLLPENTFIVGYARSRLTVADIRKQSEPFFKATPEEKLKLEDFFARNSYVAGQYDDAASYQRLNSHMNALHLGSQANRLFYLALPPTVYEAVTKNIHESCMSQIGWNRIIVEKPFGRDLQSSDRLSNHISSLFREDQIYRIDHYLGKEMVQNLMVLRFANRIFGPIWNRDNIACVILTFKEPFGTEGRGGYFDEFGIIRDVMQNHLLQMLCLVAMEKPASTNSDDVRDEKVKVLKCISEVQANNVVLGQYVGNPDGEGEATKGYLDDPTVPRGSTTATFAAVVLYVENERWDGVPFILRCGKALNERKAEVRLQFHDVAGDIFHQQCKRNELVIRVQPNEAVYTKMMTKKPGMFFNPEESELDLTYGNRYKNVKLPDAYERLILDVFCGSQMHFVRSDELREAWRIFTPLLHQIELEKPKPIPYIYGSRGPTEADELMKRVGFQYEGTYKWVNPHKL
Sequence of G-protein coupled receptor 55 (Q9Y2T6 whole entry): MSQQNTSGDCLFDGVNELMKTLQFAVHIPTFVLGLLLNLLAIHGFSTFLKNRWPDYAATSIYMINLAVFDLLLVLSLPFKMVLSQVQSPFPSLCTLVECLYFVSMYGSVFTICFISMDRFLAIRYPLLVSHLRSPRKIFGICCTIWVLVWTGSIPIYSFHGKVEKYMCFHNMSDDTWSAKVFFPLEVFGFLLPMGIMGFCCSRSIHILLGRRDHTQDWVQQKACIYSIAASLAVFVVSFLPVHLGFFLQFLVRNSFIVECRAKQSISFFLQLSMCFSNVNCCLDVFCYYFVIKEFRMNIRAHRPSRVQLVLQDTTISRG

For `CCOc1ccc(-c2ccc(SCC)nn2)cc1`, the AC50 [1] was > 52 µM (inactive), the AC50 [2] was 7.12 µM (active) and the AC50 [3] was 8.8 µM (active). For the same compound, the AC50 [4] was > 52 µM (inactive).
With `CCC(C)[C@@H](CN)NCC1(c2ccccc2)CC1` (some centres not stated) the IC50 [5] was > 66.6 µM (inactive) and the IC50 [6] was 18.4 µM (active).
In the case of `O=C(N/N=C/c1ccc([N+](=O)[O-])s1)c1ccncc1`, the EC50 [7] is reported as 0.838 µM (active), the EC50 [8] is reported as > 60 µM (not active) and the CC50 [9] is reported as 15.6 µM (active). The IC50 [10] was 1 µM (active).
In the case of `N#Cc1c(C(F)(F)F)cc(-c2ccccc2)nc1SCC(=O)Nc1sc2c(c1C#N)CCC2`, the EC50 [11] is reported as > 150 µM (not active), the CC50 [12] is reported as > 40 µM (active) and the EC50 [13] is reported as > 150 µM (inconclusive). The EC50 [14] was > 150 µM (not active) and the EC50 [15] was > 150 µM (inconclusive).
With `CC(=O)C(=Cc1cn(C)c(=O)n(C)c1=O)C(C)=O` the GI50 [16] was 96.6 µM (inactive), the GI50 [17] was 100 µM (inactive) and the GI50 [18] was 80.7 µM (inactive).
With `O=C(c1ccc(-c2ccc(Cl)cc2)o1)N1CCN(S(=O)(=O)c2cccs2)CC1` the CC50 [12] was 26 µM (active).
In the case of `O=C(CSc1nc(-c2ccccc2)c(-c2ccccc2)[nH]1)N1CCN(S(=O)(=O)c2ccccc2)CC1`, the IC50 [19] is reported as 3.67 µM (active).
With `O=C(Sc1nnc(O)nc1O)c1ccccc1` the IC50 [20] was > 80 µM (inactive) and the IC50 [21] was 224 µM (active).
With `CC1=NNC(=O)C1CCC(=O)N/N=C/c1ccco1` (configuration not stated) the IC50 [22] was 69.2 µM (active) and the IC50 [23] was > 80 µM (inactive).
For `CCCCC(=O)NC(c1cccc([N+](=O)[O-])c1)c1ccc2cccnc2c1O` (configuration not stated), the AC50 [24] was 5.92 µM (active), the AC50 [25] was 2.69 µM (active) and the CC50 [26] was 1.23 µM (active). The AC50 [27] was 1 µM (active), the AC50 [28] was 2.41 µM (active) and the AC50 [29] was 2.08 µM (active).
In the case of `CCCCc1ccc(NC(=O)N[C@H](C(=O)O)C(C)C)cc1`, the IC50 [22] is reported as 7.04 µM (active).
In the case of `COc1cc(NCc2ccccc2)c2ncn(C(C)C)c2c1`, the IC50 [20] is reported as > 80 µM (inactive).
